# Assay results taken from PubChem BioAssay AID2060610 (Molecular Pharmacology Branch, DTP, NCI, 2025).
# Tested on: 616215-338-R-J1-PDC complex spheroids, viability % test/control
# Experiment: Anticancer human tumor 616215-338-R-J1-PDC patient-derived colon adenocarcinoma cell line growth inhibition [CLK]
# Details: for IC50: curve of first compound; for viability, T/C: stronger effect = lower value
# How it was run: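 Multi-cell-type spheroids combined patient-derived tumor cells with HUVEC endothelial cells and human mesenchymal stem cells. Paired agents were dosed in half-log steps down from about clinical Cmax, or from 10 microM where Cmax was unknown.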
# [1] = second compound 0.0316 µM, first compound 0.0316 µM
# [2] = second compound 0.0316 µM, first compound 0.1 µM
# [3] = second compound 0.1 µM, first compound 0.0316 µM
# [4] = second compound 0.1 µM, first compound 0.1 µM
# [5] = second compound 0.316 µM, first compound 0.0316 µM
# [6] = second compound 0.316 µM, first compound 0.1 µM
# [7] = second compound 1 µM, first compound 0.0316 µM
# [8] = second compound 1 µM, first compound 0.1 µM
# [9] = second compound 3.16 µM, first compound 0.0316 µM
# [10] = second compound 3.16 µM, first compound 0.1 µM
# [11] = second compound 10 µM, first compound 0.0316 µM
# [12] = second compound 10 µM, first compound 0.1 µM
# [13] = second compound 0.0316 µM, first compound 0.316 µM
# [14] = second compound 0.0316 µM, first compound 1 µM
# [15] = second compound 0.0316 µM, first compound 3.16 µM
# [16] = second compound 0.0316 µM, first compound 10 µM
# [17] = second compound 0.1 µM, first compound 0.316 µM
# [18] = second compound 0.1 µM, first compound 1 µM
# [19] = second compound 0.1 µM, first compound 3.16 µM
# [20] = second compound 0.1 µM, first compound 10 µM
# [21] = second compound 0.316 µM, first compound 0.316 µM
# [22] = second compound 0.316 µM, first compound 1 µM
# [23] = second compound 0.316 µM, first compound 3.16 µM
# [24] = second compound 0.316 µM, first compound 10 µM
# [25] = second compound 1 µM, first compound 0.316 µM
# [26] = second compound 1 µM, first compound 1 µM
# [27] = second compound 1 µM, first compound 3.16 µM
# [28] = second compound 1 µM, first compound 10 µM
# [29] = second compound 3.16 µM, first compound 0.316 µM
# [30] = second compound 3.16 µM, first compound 1 µM
# [31] = second compound 3.16 µM, first compound 3.16 µM
# [32] = second compound 3.16 µM, first compound 10 µM
# [33] = second compound 10 µM, first compound 0.316 µM
# [34] = second compound 10 µM, first compound 1 µM
# [35] = second compound 10 µM, first compound 3.16 µM
# [36] = second compound 10 µM, first compound 10 µM
# 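Note: spheroids exposed to agents for 7 days.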
# 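Throughout, for viability, T/C: 100% = DMSO vehicle wells.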
smiles,measurement,setting,value
Cn1ncnc1[C@H]1c2n[nH]c(=O)c3cc(F)cc(c23)N[C@@H]1c1ccc(F)cc1 + CNC(=O)c1ccc(Nc2nc(OC3CCCC3)c3c(-c4ccc5nc(C)oc5c4)c[nH]c3n2)c(OC)c1,IC50,second compound 0.0316 µM,> 0.1 µM
same,IC50,second compound 0.1 µM,< 0.000316 µM
same,IC50,second compound 0.316 µM,< 0.000316 µM
same,IC50,second compound 1 µM,< 0.000316 µM
same,IC50,second compound 3.16 µM,< 0.000316 µM
same,IC50,second compound 10 µM,< 0.000316 µM
same,"viability, T/C","second compound 0.0316 µM, first compound 0.000316 µM",97.2%
same,"viability, T/C","second compound 0.0316 µM, first compound 0.001 µM",93.8%
same,"viability, T/C","second compound 0.0316 µM, first compound 0.00316 µM",102%
same,"viability, T/C","second compound 0.0316 µM, first compound 0.01 µM",102%
same,"viability, T/C",[1],101%
same,"viability, T/C",[2],108%
same,"viability, T/C","second compound 0.1 µM, first compound 0.000316 µM",46.1%
same,"viability, T/C","second compound 0.1 µM, first compound 0.001 µM",46.5%
same,"viability, T/C","second compound 0.1 µM, first compound 0.00316 µM",47.9%
same,"viability, T/C","second compound 0.1 µM, first compound 0.01 µM",54.5%
same,"viability, T/C",[3],59.8%
same,"viability, T/C",[4],49.6%
same,"viability, T/C","second compound 0.316 µM, first compound 0.000316 µM",46.7%
same,"viability, T/C","second compound 0.316 µM, first compound 0.001 µM",45.3%
same,"viability, T/C","second compound 0.316 µM, first compound 0.00316 µM",40.5%
same,"viability, T/C","second compound 0.316 µM, first compound 0.01 µM",45.1%
same,"viability, T/C",[5],37.7%
same,"viability, T/C",[6],51.3%
same,"viability, T/C","second compound 1 µM, first compound 0.000316 µM",39.2%
same,"viability, T/C","second compound 1 µM, first compound 0.001 µM",44.8%
same,"viability, T/C","second compound 1 µM, first compound 0.00316 µM",41.9%
same,"viability, T/C","second compound 1 µM, first compound 0.01 µM",48.1%
same,"viability, T/C",[7],44.3%
same,"viability, T/C",[8],56.3%
same,"viability, T/C","second compound 3.16 µM, first compound 0.000316 µM",42.2%
same,"viability, T/C","second compound 3.16 µM, first compound 0.001 µM",45.1%
same,"viability, T/C","second compound 3.16 µM, first compound 0.00316 µM",45.5%
same,"viability, T/C","second compound 3.16 µM, first compound 0.01 µM",42.9%
same,"viability, T/C",[9],52%
same,"viability, T/C",[10],50.9%
same,"viability, T/C","second compound 10 µM, first compound 0.000316 µM",38.8%
same,"viability, T/C","second compound 10 µM, first compound 0.001 µM",43.6%
same,"viability, T/C","second compound 10 µM, first compound 0.00316 µM",50.2%
same,"viability, T/C","second compound 10 µM, first compound 0.01 µM",50.1%
same,"viability, T/C",[11],54.9%
same,"viability, T/C",[12],47.2%
Nc1ccn(C2OC(CO)C(O)C2(F)F)c(=O)n1 (stereo unspecified) + CNC(=O)c1ccc(Nc2nc(OC3CCCC3)c3c(-c4ccc5nc(C)oc5c4)c[nH]c3n2)c(OC)c1,IC50,second compound 0.0316 µM,< 0.0316 µM
same,IC50,second compound 0.1 µM,< 0.0316 µM
same,IC50,second compound 0.316 µM,< 0.0316 µM
same,IC50,second compound 1 µM,< 0.0316 µM
same,IC50,second compound 3.16 µM,< 0.0316 µM
same,IC50,second compound 10 µM,< 0.0316 µM
same,"viability, T/C",[1],21.9%
same,"viability, T/C",[2],14.5%
same,"viability, T/C",[13],18.9%
same,"viability, T/C",[14],14.9%
same,"viability, T/C",[15],20.3%
same,"viability, T/C",[16],18.9%
same,"viability, T/C",[3],18.2%
same,"viability, T/C",[4],18.4%
same,"viability, T/C",[17],16.8%
same,"viability, T/C",[18],14.6%
same,"viability, T/C",[19],21%
same,"viability, T/C",[20],17.4%
same,"viability, T/C",[5],22.1%
same,"viability, T/C",[6],17.2%
same,"viability, T/C",[21],18.1%
same,"viability, T/C",[22],17.1%
same,"viability, T/C",[23],18.7%
same,"viability, T/C",[24],20.2%
same,"viability, T/C",[7],18.7%
same,"viability, T/C",[8],15.9%
same,"viability, T/C",[25],16.9%
same,"viability, T/C",[26],17.8%
same,"viability, T/C",[27],16.6%
same,"viability, T/C",[28],15.6%
same,"viability, T/C",[9],19.1%
same,"viability, T/C",[10],15.8%
same,"viability, T/C",[29],18.6%
same,"viability, T/C",[30],18.1%
same,"viability, T/C",[31],21.9%
same,"viability, T/C",[32],18.3%
same,"viability, T/C",[11],21.8%
same,"viability, T/C",[12],15%
same,"viability, T/C",[33],18.6%
same,"viability, T/C",[34],18.2%
same,"viability, T/C",[35],23.1%
same,"viability, T/C",[36],17.9%
O=C(c1cc(Cc2n[nH]c(=O)c3ccccc23)ccc1F)N1CCN(C(=O)C2CC2)CC1 + CNC(=O)c1ccc(Nc2nc(OC3CCCC3)c3c(-c4ccc5nc(C)oc5c4)c[nH]c3n2)c(OC)c1,IC50,second compound 0.0316 µM,> 10 µM
same,IC50,second compound 0.1 µM,> 10 µM
same,IC50,second compound 0.316 µM,< 0.0316 µM
same,IC50,second compound 1 µM,< 0.0316 µM
same,IC50,second compound 3.16 µM,< 0.0316 µM
same,IC50,second compound 10 µM,< 0.0316 µM
same,"viability, T/C",[1],107%
same,"viability, T/C",[2],98.9%
same,"viability, T/C",[13],92.3%
same,"viability, T/C",[14],99.7%
same,"viability, T/C",[15],96.1%
same,"viability, T/C",[16],110%
same,"viability, T/C",[3],59%
same,"viability, T/C",[4],63.5%
same,"viability, T/C",[17],56%
same,"viability, T/C",[18],57.2%
same,"viability, T/C",[19],51.2%
same,"viability, T/C",[20],63.9%
same,"viability, T/C",[5],42.1%
same,"viability, T/C",[6],61.1%
same,"viability, T/C",[21],49.5%
same,"viability, T/C",[22],45.2%
same,"viability, T/C",[23],50%
same,"viability, T/C",[24],56.6%
same,"viability, T/C",[7],45.1%
same,"viability, T/C",[8],51.3%
same,"viability, T/C",[25],42.4%
same,"viability, T/C",[26],49.3%
same,"viability, T/C",[27],52.6%
same,"viability, T/C",[28],49.8%
same,"viability, T/C",[9],45.5%
same,"viability, T/C",[10],38.5%
same,"viability, T/C",[29],42.4%
same,"viability, T/C",[30],42.2%
same,"viability, T/C",[31],55.4%
same,"viability, T/C",[32],41.6%
same,"viability, T/C",[11],39.1%
same,"viability, T/C",[12],41.8%
same,"viability, T/C",[33],42.8%
same,"viability, T/C",[34],47.8%
same,"viability, T/C",[35],40.8%
same,"viability, T/C",[36],39.8%
